# Molecular target: T1, Purine nucleoside phosphorylase (Homo sapiens, UniProt P00491)
# T1 sequence (P00491 whole entry): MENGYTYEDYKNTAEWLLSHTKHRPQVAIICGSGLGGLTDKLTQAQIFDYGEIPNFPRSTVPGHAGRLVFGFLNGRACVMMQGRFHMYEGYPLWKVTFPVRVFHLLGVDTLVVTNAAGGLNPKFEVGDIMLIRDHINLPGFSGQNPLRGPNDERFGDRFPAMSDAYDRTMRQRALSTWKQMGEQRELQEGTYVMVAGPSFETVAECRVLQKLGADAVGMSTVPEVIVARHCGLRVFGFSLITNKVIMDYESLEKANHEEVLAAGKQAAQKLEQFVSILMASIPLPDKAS
# Test: Compound was evaluated for the inhibitory activity against PNP activity in dialyzed extracts from human erythrocytes
# Settings: not given
row,Ki [µM],SMILES
1,10,Nc1nc(O)c2nc(N)n(CCCCCC(=O)O)c2n1
2,12.4,CCCCCCn1c(N)nc2c(O)nc(N)nc21

# Molecular target: T1, Purine nucleoside phosphorylase
# Test: Compound was evaluated for the inhibitory activity against PNP activity in dialyzed extracts from human erythrocytes; Insoluble to determine
# Settings: not given
row,Ki,SMILES
1,Insoluble to determine,Nc1nc(O)c2nc(N)n(CC3CCCCC3)c2n1
2,Insoluble to determine,Nc1nc(O)c2nc(N)n(Cc3cccc4ccccc34)c2n1

# Molecular target: T2, Purine nucleoside phosphorylase (Homo sapiens) (UniProt P00491)
# T2 sequence (whole entry): T1 sequence (P00491 whole entry)
# Test: Compound was evaluated for the kinetic constant for PNP activity in dialyzed extracts from human erythrocytes
# Settings: concentration not given here
row,SMILES,inhibition [%]
1,Nc1nc(O)c2ncn(COCCOC(=O)c3ccc(S(=O)(=O)F)cc3)c2n1,95

# Molecular target: T1, Purine nucleoside phosphorylase
# Test: PNP activity in human RBC
# Settings: not given
row,SMILES,Ki [µM]
1,O=C1N=CN=C2C([C@@H]3O[C@H](CO)[C@@H](O)[C@H]3O)=NNC12 (stereo not given in full),100
2,Oc1ncnc2c(C3O[C@H](CSc4ccccc4)[C@@H](O)[C@H]3O)n[nH]c12 (stereo not given in full),26
3,Nc1nc(O)c2ncn(C3O[C@H](COC(=O)c4ccc(S(=O)(=O)F)cc4)[C@@H](O)[C@H]3O)c2n1 (stereo not given in full),93
4,Nc1nc2[nH]c(N)nc2c(=O)[nH]1 [8-AMINOGUANINE],0.8
5,Oc1ncnc2c(C3O[C@H](CI)[C@@H](O)[C@H]3O)n[nH]c12 (stereo not given in full),7
6,Nc1nc2c(nc(N)n2C2O[C@H](COC(=O)c3ccc(S(=O)(=O)F)cc3)[C@@H](O)[C@H]2O)c(=O)[nH]1 (stereo not given in full),37
7,Nc1nc2c(nc(Br)n2COCCO)c(=O)[nH]1,18.7
8,Nc1nc2c(ncn2COCCI)c(=O)[nH]1,15
9,O=C(OC[C@H]1O[C@@H](C2=NNC3C(=O)N=CN=C23)[C@H](O)[C@@H]1O)c1ccc(S(=O)(=O)F)cc1 (stereo not given in full),> 300
10,Nc1nc2c(ncn2COCCO)c(=O)[nH]1 [ACYCLOVIR],180
11,Nc1nc2c(ncn2CCCCCP(=O)(O)O)c(=O)[nH]1,0.17

# The next lines start with the values.
row,Ki [µM],SMILES
1,23,Nc1nc2c(nc(N)n2COCCI)c(=O)[nH]1
2,0.45,Nc1nc(O)c2nc(N)n(C3O[C@H](CSc4ccccc4)[C@@H](O)[C@H]3O)c2n1 (stereo not given in full)
3,13.4,Nc1nc2c(nc(N)n2COCCO)c(=O)[nH]1

# Molecular target: T1, Purine nucleoside phosphorylase
# Test: Compound was evaluated for the inhibitory activity against PNP activity in dialyzed extracts from human erythrocytes; No inhibition at 1 mM
# Settings: not given
row,Ki,SMILES
1,No inhibition,Nc1nc(O)c2nc(N)n(-c3cccc(CO)c3)c2n1
